Assay results published in US20260266848A1, “COMPOSITIONS AND METHODS FOR DIAGNOSING AND TREATING DYSTONIA” (Duke University, priority 2023, published 2026).

How the values were obtained:
DYT-TOR1A MEF EVs = assay: Quantitative LC-MS/MS proteomics of EVs from drug-treated DYT-TOR1A MEF cultures (ritonavir, salubrinal); assay type: cell-based, mouse; set-up: key to RTV Corrective Direction / RTV Corrective Direction, Grwd1 / RTV Corrective Direction, Srrm2 / RTV Corrective Direction, Rbm17 / RTV Corrective Direction, Dcaf8 / RTV Corrective Direction, Edil3 / RTV Corrective Direction, Timp3 / RTV Corrective Direction, Heatr3 / RTV Corrective Direction, Brd4 / RTV Corrective Direction, P3h4 / RTV Corrective Direction, Pacsin3 / RTV Corrective Direction, Naa50 / RTV Corrective Direction, Lpar6 / RTV Corrective Direction, Ndrg1 / RTV Corrective Direction, Kntc1 / RTV Corrective Direction, Cdk11b / RTV Corrective Direction, Sumo1 / RTV Corrective Direction, Lsm4 / RTV Corrective Direction, Hmga2 / RTV Corrective Direction, Cstf1 / RTV Corrective Direction, Tes / RTV Corrective Direction, Sbno1 / RTV Corrective Direction, Unc119b / RTV Corrective Direction, Cfdp1 / RTV Corrective Direction, Sec61b: YES = protein abundance effect opposite to DYT/WT; conditions: EV protein abundance
WT MEF EVs = assay: Quantitative LC-MS/MS proteomics of EVs from ISRIB-treated WT MEF cultures; assay type: cell-based, mouse; set-up: key to ISRIB and DYT Parallel Direction / ISRIB and DYT Parallel Direction, Ctdsp1 / ISRIB and DYT Parallel Direction, Pcdh19 / ISRIB and DYT Parallel Direction, Tspan7 / ISRIB and DYT Parallel Direction, Myo1e / ISRIB and DYT Parallel Direction, Plpp3 / ISRIB and DYT Parallel Direction, Sh3bp4 / ISRIB and DYT Parallel Direction, Dnajc7 / ISRIB and DYT Parallel Direction, Drg1 / ISRIB and DYT Parallel Direction, Maea: YES = protein abundance effect similar to DYT/WT; conditions: EV protein abundance

Notch3
RTV Corrective Direction (DYT-TOR1A MEF EVs; DYT + RTV (ritonavir) vs DYT, direction compared with DYT/WT): YES | DYT + RTV/DYT Cohen's d (DYT-TOR1A MEF EVs; ritonavir (RTV)-treated DYT vs DYT): −2.22 | WT + ISRIB/WT Cohen's d (WT MEF EVs; ISRIB-treated WT vs WT): 0.52 | ISRIB and DYT Parallel Direction (WT MEF EVs; WT + ISRIB vs WT, direction compared with DYT/WT): YES
